{
  "source": "patent US12281060B2",
  "about": "“Remodilins for airway remodeling and organ fibrosis” (The University of Chicago, priority 2019, dated 2025)",
  "key": {"[1]": {"test_system": "serum response factor (SRF)", "experiment": "Luciferase reporter assay of TGFβ-stimulated SRF activation", "assay_type": "cell-based, human", "source_text": "FIGS. 6A-6B. Remodilins inhibit myofibroblast transformation. Remodilin 4 inhibits TGFβ-stimulated serum response factor (SRF) activation (FIG. 6B) but not Smad signaling (FIG. 6A), as determined using luciferase reporter assays.\nIt is well-established that myofibroblast transformation (MFT) is a critical step in the development of pulmonafy fibrisos. […] Maintenance of Smad signaling can preserve other beneficial effects of TGFβ. As depicted in FIG. 7, four remodilins inhibited smooth muscle ACTA2 and fibronectin-1 (FN1) protein expression (markers of MFT) in dose-dependent fashion."}, "[2]": {"experiment": "Plasma pharmacokinetics and tissue distribution (liver, lung, thyroid) after single oral doses", "assay_type": "in vivo", "details": "after oral administration, 10 or 50 mg/kg; male C57Bl/6 mice", "description": "Studies were performed to characterize plasma pharmacokinetics (PK) and tissue distribution (liver, lung, thyroid) of 5 potential lead candidates in male C57Bl/6 mice receiving single oral doses of 10 mg/kg or 50 mg/kg."}, "bleomycin-treated mice": {"test_system": "bleomycin-treated mice", "experiment": "Bleomycin-induced lung fibrosis in mice", "assay_type": "in vivo", "details": "25 mg/kg QD IP", "description": "FIGS. 8A-8B. Treatment with remodilin 83 (25 mg/kg QD IP) reduced pulmonary fibrosis in bleomycin-treated mice. Remodilin or vehicle (DMSO) was given on days 7-21 after i.t. bleomycin (1 U/kg). Both lung hydroxyproline (FIG. 8A) and collagen levels (FIG. 8B) were lower in remodilin 83-treated mice than in control mice.\nBoth lung hydroxyproline (FIG. 8A) and collagen levels (FIG. 8B) were lower in remodilin 83-treated mice (systemically-administered) than in control mice."}, "HDM-treated Balb/c mice [3]": {"test_system": "HDM-treated Balb/c mice", "experiment": "HDM-induced airway constrictor hyperresponsiveness, methacholine challenge", "assay_type": "in vivo", "details": "12.5 mg/kg BID IP; HDM model, female Balb/c mice; vs 20% Solutol vehicle", "description": "(§1) FIGS. 4A-4B. Effect of remodilin treatment (remodilin 83, 12.5 mg/kg BID IP) on airway constrictor hyperresponsiveness and remodeling induced by house dust mite (HDM) exposure in female Balb/c mice. FIG. 4A Airway constrictor hyperresponsiveness methacholine dose-response curves for mice treated with remodilin 83 or 20% Solutol (vehicle).\nA mouse model of acute allergic asthma was used in which mice were sensitized with house dust mite (HDM) extracts. […] As depicted in FIGS. 1A and 1B, male and female Balb/c mice treated with HDM were subjected to methacholine challenge. […] The area under the curve increased by at least 3.6-fold in each sex.\n(§2) As depicted in FIG. 4A, twice-daily intraperitoneal administration of remodilins (12.5 mg/kg) was evaluated."}, "HDM-treated Balb/c mice [4]": {"test_system": "HDM-treated Balb/c mice", "experiment": "HDM-induced airway remodeling, MYH11 immunostain-positive airway smooth muscle area", "assay_type": "in vivo", "details": "12.5 mg/kg BID IP, HDM model, female Balb/c mice, large airways, vs 20% Solutol vehicle", "description": "as §1\nFurthermore, three-way analysis of variance (Ctrl vs HDM, Female vs Male, Small vs Large Airways) confirmed that the HDM influence on airway remodeling was significant at P=0.0007.\nas §2"}, "[5]": {"details": "days 7-21 after i.t. bleomycin, vs control mice"}},
  "note": "Entries after “also recorded” stand apart in the source; their conditions may differ.",
  "data": [
    {"smiles": "CCN(CC)S(=O)(=O)c1ccc(NC(=O)c2ccc(OC)c(I)c2)cc1", "note": "[remodilin 4, N-(4-(N,N-diethylsulfamoyl)phenyl)-3-iodo-4-methoxybenzamide]", "values": [
      {"measurement": "TGFβ-stimulated serum response factor (SRF) activation", "setting": "[1]", "result": "inhibits"}
    ]},
    {"smiles": "COc1ccc(C(=O)Nc2ccc(S(=O)(=O)N3CCCCC3C)cc2)cc1I", "note": "(stereo not drawn) [remodilin 39, 3-Iodo-4-methoxy-N-(4-((2-methylpiperidin-1-yl)sulfonyl)phenyl) benzamide]", "values": [
      {"measurement": "accumulation in lung vs. other tissues (liver, thyroid) or plasma", "setting": "[2]", "result": "selective accumulation"}
    ]},
    {"smiles": "O=C(Nc1ccc(S(=O)(=O)N2CCCC2)cc1)c1ccc(Br)c(I)c1", "note": "[remodilin 50, 4-Bromo-3-iodo-N-(4-(pyrrolidin-1-ylsulfonyl)phenyl)benzamide]", "values": [
      {"measurement": "accumulation in lung vs. other tissues (liver, thyroid) or plasma", "setting": "[2]", "result": "selective accumulation"}
    ]},
    {"smiles": "COc1ccc(C(=O)Nc2ccc(S(=O)(=O)N3CCNCC3)cc2)cc1I", "note": "[remodilin 61, 3-Iodo-4-methoxy-N-(4-(piperazin-1-ylsulfonyl)phenyl)benzamide]", "values": [
      {"measurement": "accumulation in lung vs. other tissues (liver, thyroid) or plasma", "setting": "[2]", "result": "higher concentrations in lung; also recorded: selective accumulation"}
    ]},
    {"smiles": "CC1CN(S(=O)(=O)c2ccc(NC(=O)c3ccc(Br)c(I)c3)cc2)CCN1", "note": "(stereo not drawn) [remodilin 83, 4-Bromo-3-iodo-N-(4-((3-methylpiperazin-1-yl)sulfonyl)phenyl)benzamide]", "values": [
      {"measurement": "accumulation in lung vs. other tissues (liver, thyroid) or plasma", "setting": "[2]", "result": "higher concentrations in lung; also recorded: selective accumulation"},
      {"measurement": "pulmonary fibrosis (bleomycin-induced)", "setting": "bleomycin-treated mice; days 7-21 after i.t. bleomycin 1 U/kg, vs DMSO vehicle", "result": "inhibitory activity; also recorded: reduced"},
      {"measurement": "lung collagen levels", "setting": "bleomycin-treated mice; [5]", "result": "lower"},
      {"measurement": "lung hydroxyproline", "setting": "bleomycin-treated mice; [5]", "result": "lower"},
      {"measurement": "development of airway constrictor hyperresponsiveness", "setting": "HDM-treated Balb/c mice [3]", "result": "significantly blunted"},
      {"measurement": "MYH11 immunostain-positive airway smooth muscle area normalized to epithelial length", "setting": "HDM-treated Balb/c mice [4]", "result": "significantly lower"},
      {"measurement": "MYH11 immunostain-positive airway smooth muscle area normalized to epithelial length", "setting": "HDM-treated Balb/c mice [4]; listed as Remodilin 83", "result": "significantly lowered"}
    ]},
    {"smiles": "CC1CNCCN1S(=O)(=O)c1ccc(NC(=O)c2ccc(Br)c(I)c2)cc1", "note": "(stereo not drawn) [remodilin 86, 4-Bromo-3-iodo-N-(4-((2-methylpiperazin-1-yl)sulfonyl)phenyl)benzamide]", "values": [
      {"measurement": "accumulation in lung vs. other tissues (liver, thyroid) or plasma", "setting": "[2]", "result": "higher concentrations in lung; also recorded: selective accumulation"}
    ]}
  ]
}
